Assay results from US7432253B2, “Phosphoepoxides, method for making same and uses” (Institut National de la Sante et de la Recherche Medicale, priority 1998, dated 2008).

Key:
mice = assay: Toxicity of Epox-PP (sodium salt) in mice, intravenous injection; format: in vivo
Method: Five 30 g mice received an intravenous injection (caudal vein) of 300 μl of PBS buffer containing 1 mg of Epox-PP (sodium salt). […] Toxicity is thus less than 20% for a dose of 33.4 mg of Epox-PP (sodium salt) per kilogram of animal body weight.

Tγ9δ2 lymphocyte clone = assay: Induced cytotoxicity test of a Tγ9δ2 lymphocyte clone; format: cell-based; conditions: for concentration at which the compound is active: stimulation of specific cytotoxic activity
human Tγ9δ2 lymphocytes [1] = conditions: prior art prenyl pyrophosphates, best results obtained; cited from earlier work
human Tγ9δ2 lymphocytes [2] = system: human Tγ9δ2 lymphocytes
Tγ9δ2 lymphocytes = assay: Bioactivity (induced cytotoxicity test) after transient chemical treatment; format: cell-based; parameters: key: + indicates detection of activity upon Tγ9δ2 lymphocytes; − indicates that no activity could be detected; conditions: diluted 1:30 from 5 to 10 μM solutions
Method: The bioactivity of the compound according to the invention Epox-PP (obtained as stated in Example 1) is compared with that of a stock preparation of Tubag natural phosphoantigens obtained as described in WO 95/20673.
Bioactivity is measured by an induced cytotoxicity test as described in Example 6 using the compound to be tested diluted 1:30 from 5 to 10 μM solutions of the compounds.
Before bioactivity is measured, the compounds are subjected to a transient chemical treatment by being brought into contact with one of the following reagents: NaIO4 (5 mM); NaBH3CN (10 mM, pH 7); KMnO4 (1 mM); bromine water Br2, H2O (7 mM), followed by neutralization of the reagent.

## 3,4-epoxy-3-methyl-1-butyl diphosphate [Epox-PP (sodium salt)]
mice; 1 mg i.v. (caudal vein) per 30 g mouse
  sign of shock or pyrogenicity: No sign of shock or pyrogenicity
mice; 1 mg i.v. per 30 g mouse, during the study
  variation in the weight of the mice: no significant variation
mice; dose of 33.4 mg per kilogram of animal body weight, i.v.
  Toxicity: less than 20%
mice; five mice, 1 mg i.v. per 30 g mouse, 30 days
  mice still alive after 30 days: 5 mice

## isopentenylpyrophosphate [IPP]
Tγ9δ2 lymphocyte clone; IPP versus Epox-PP
  active concentration relative to the compound from Example 1: 150 times higher
Tγ9δ2 lymphocyte clone
  concentration at which the compound is active: ~3 µM
Human Tγ9δ2 lymphocytes [1]
  minimum concentration at which activity could be demonstrated: ≥ 3 µM
Human Tγ9δ2 lymphocytes [2]
  minimum active concentration relative to natural phosphoantigens: ~1000 times higher

## 3,4-epoxy-3-methyl-1-butyl diphosphate [Epox-PP]
Tγ9δ2 lymphocytes; KMnO4 1 mM
  Bioactivity after chemical treatment: KMnO4 (1 mM): +
Tγ9δ2 lymphocytes; NaBH3CN 10 mM pH 7
  Bioactivity after chemical treatment: NaBH3CN (10 mM pH7): +
Tγ9δ2 lymphocytes; NaIO4 5 mM
  Bioactivity after chemical treatment: NaIO4 (5 mM): +
Tγ9δ2 lymphocytes; bromine water 7 mM
  Bioactivity after chemical treatment: Br2, H2O (7 mM): +
Tγ9δ2 lymphocytes; no reagent
  Bioactivity after chemical treatment: none: +
Tγ9δ2 lymphocyte clone
  concentration at which the compound is active: ~0.02 µM
